Test results published in PubChem BioAssay (NCI).
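Dose response: 5 concentrations. Exposure: 48 h. Format: 96-well plates. Endpoint: linear interpolation; highest concentration if not reached. Here, GI50 denotes the concentration required for 50% inhibition of growth. TGI: concentration producing complete growth inhibition.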

How the values were obtained:
Assay in all cases: inhibition of tumour cell growth, NCI panel, 48 h
A549 NSCLC = tested on: A549 NSCLC
786-0 renal = tested on: 786-0 renal
OVCAR-4 ovarian = tested on: OVCAR-4 ovarian
K-562 leukemia = tested on: K-562 leukemia
T-47D breast = tested on: T-47D breast
SK-OV-3 ovarian = tested on: SK-OV-3 ovarian
A498 renal = tested on: A498 renal
OVCAR-3 ovarian = tested on: OVCAR-3 ovarian
UACC-62 melanoma = tested on: UACC-62 melanoma
SR leukemia = tested on: SR leukemia

SMILES	TGI (A549 NSCLC)	TGI (786-0 renal)	TGI (OVCAR-4 ovarian)	TGI (K-562 leukemia)	TGI (T-47D breast)	TGI (SK-OV-3 ovarian)	TGI (A498 renal)	TGI (OVCAR-3 ovarian)	TGI (UACC-62 melanoma)	TGI (SR leukemia)	GI50 (T-47D breast)	GI50 (SR leukemia)	GI50 (SK-OV-3 ovarian)	GI50 (A498 renal)	GI50 (UACC-62 melanoma)	GI50 (A549 NSCLC)	GI50 (OVCAR-4 ovarian)	GI50 (K-562 leukemia)	GI50 (OVCAR-3 ovarian)
c1ccc(-c2cnc(-c3ccc(-c4ncc(-c5ccccc5)o4)cc3)o2)cc1	> 100 µM	> 100 µM	> 100 µM	> 100 µM	> 100 µM	> 100 µM	> 100 µM	> 100 µM	> 100 µM										
CC(C)(C)OC(=O)n1c(-c2ccccc2F)cc(=O)c2cc3c(cc21)OCO3	> 39.7 µM	> 44.3 µM	> 100 µM	> 100 µM	> 100 µM		> 94.7 µM	> 100 µM	> 100 µM	> 34.6 µM									
CSC(SC)=C1C(=O)N(c2ccccc2)N=C1C	> 100 µM	62 µM	> 100 µM	66.8 µM		91.9 µM	90.5 µM		89.9 µM										
Cc1cc(/N=C/c2ccc(C#N)cc2)n(-c2ccccc2)n1	> 100 µM	> 100 µM	> 100 µM	> 100 µM	> 100 µM	> 100 µM		> 100 µM	> 100 µM	> 100 µM									
Cc1ccc(-c2c(C#N)c(-c3ccc([N+](=O)[O-])cc3)c(C#N)c(=O)n2NS(=O)(=O)c2ccccc2)cc1	> 100 µM	> 100 µM	> 100 µM	> 100 µM		> 100 µM	> 100 µM		64 µM										
CC(C)(C)c1ccc(OCC(=O)O)c(Cl)c1	> 100 µM	> 100 µM	> 100 µM	> 100 µM	> 100 µM	> 100 µM	> 100 µM	> 100 µM	> 100 µM										
CCCCC/C(C=O)=C\c1ccccc1		> 100 µM	> 100 µM	69.8 µM	> 100 µM	> 100 µM	> 100 µM		> 100 µM	> 100 µM									
C[C@]12CC[C@H](O)C=C1CC[C@@H]1[C@@H]2CC[C@]2(C)C(c3ccc(=O)oc3)CC[C@]12O (stereo partly specified)	0.0172 µM		0.0356 µM	0.405 µM		0.065 µM	0.081 µM	0.018 µM	0.0378 µM										
Cc1c2ccncc2c(C)c2c1[nH]c1ccccc12	2.96 µM		2.66 µM	5.09 µM	0.509 µM	4.44 µM	3.62 µM	2.65 µM	6.02 µM	> 100 µM	0.173 µM	0.819 µM							
COc1cc(C=C2C(=O)NC(=S)NC2=O)cc(OC)c1OC	> 100 µM	> 100 µM	> 100 µM	> 100 µM	> 100 µM	> 100 µM		> 100 µM	> 100 µM										
O=C1CCc2ccc3c(c21)CC1(Cc2ccccc2C1)C3	29.6 µM	48.1 µM	> 100 µM		59.2 µM	> 100 µM		28.8 µM		78.8 µM									
O=C1c2cccc(NCCNCCO)c2C(=O)c2cccc(NCCNCCO)c21	7.78 µM	3.95 µM	2.49 µM	15 µM	4.26 µM	8.45 µM	7.44 µM	4.74 µM	3.81 µM										
O=C(CNCc1ccccc1)Oc1c(Cl)c(Cl)c(Cl)c(Cl)c1Cl	69.1 µM	> 100 µM	> 100 µM	> 100 µM	67.9 µM	> 100 µM		62.9 µM	51.5 µM	47.9 µM									
CCOC(=O)[C@@H]1ON2O[C@@H](OC3CCCC3(c3ccccc3)c3ccccc3)C[C@H]3OC(=O)[C@@H]1C32 (stereo partly specified)	57.4 µM	79 µM			69.1 µM	> 100 µM	> 100 µM	54.1 µM	42.2 µM	61.4 µM									
Clc1ccc(Cl)c(SCCCN2CCNCC2)c1	44.4 µM	52.1 µM	47.9 µM	39.9 µM	58.1 µM	32 µM	28.2 µM	47.4 µM	7.85 µM										
c1csc(-c2c3ccc(=[N+]4CCCCC4)cc-3oc3cc(N4CCCCC4)ccc23)c1						0.682 µM	0.453 µM		0.356 µM				0.212 µM	0.0683 µM	0.159 µM				
CCCOC(=O)NC(C)C(=O)NC(CCC(=O)NC(CCCC(N)C(=O)O)C(=O)NC(C)C(=O)O)C(=O)O (stereo unspecified)	> 100 µM	> 100 µM	70.6 µM		41.7 µM		> 100 µM	> 100 µM	33.7 µM	32.4 µM									
Cc1cn2c(C)csc2c1P(=O)(OC(C)C)OC(C)C	> 100 µM	> 100 µM	> 100 µM	> 100 µM		> 100 µM	> 100 µM	> 100 µM	> 100 µM	> 100 µM									
Cc1cn([C@H]2C[C@](C)(CO)N(C)O2)c(=O)[nH]c1=O	> 100 µM	> 100 µM	> 100 µM	> 100 µM	> 100 µM	> 100 µM	> 100 µM		> 100 µM	> 100 µM									
CC1(C)[C@@H](Cn2cnc3c(Cl)nc(N)nc32)CC[C@@]1(C)CO	> 100 µM	> 100 µM	> 100 µM	> 100 µM	> 100 µM	> 100 µM	> 100 µM	> 100 µM	38 µM										
O/C(=C\c1nc2ccccc2nc1NC12CC3CC(CC(C3)C1)C2)c1ccc(Br)cc1	> 10 µM	> 10 µM	> 10 µM	> 10 µM	> 10 µM	> 10 µM	> 10 µM	> 10 µM	> 10 µM										
S=C1CC(c2ccccc2)Sc2ccc(Cl)cc2N1 (stereo unspecified)	> 100 µM	59.5 µM	> 100 µM	> 100 µM	> 100 µM	> 100 µM		> 100 µM	> 100 µM	> 100 µM									
O=C(Nc1ccc(-n2cc(-c3ccncc3)c(-c3ccc(O)c(Cl)c3)n2)cc1)Nc1cccc(Cl)c1Cl	> 32.5 µM		> 32.5 µM	> 32.5 µM	> 32.5 µM		> 32.5 µM	> 32.5 µM	> 32.5 µM	> 32.5 µM	8.62 µM	30.6 µM		13.8 µM	9.79 µM	9.11 µM	5.47 µM	5.4 µM	6.67 µM
